Format in all cases: biochemical
For experiment [1], the target named is Nde I. Nature of the experiment: Restriction enzyme assay on pUC19. The settings on record: Nde I (CATATG). Here is the method: (§1) Restriction enzyme assays. Restriction digests were performed as specified and the products were separated on 0.8% agarose gels electrophoresed at 80-90V in 1× Tris borate EDTA buffer. Gels were photographed, scanned and quantitated using NIH Image v.1.55, as recommended in the instruction manual.

Experiment [2] addresses Xba I. Nature of the experiment: Restriction enzyme assay on pUC19. To be noted: Xba I (TCTAGA). Here is the method:
as §1

The target in experiment [3] is T1, Pst I (Providencia stuartii, UniProt P00640).
T1 construct: purchased New England BioLabs
T1 sequence (P00640 1-326): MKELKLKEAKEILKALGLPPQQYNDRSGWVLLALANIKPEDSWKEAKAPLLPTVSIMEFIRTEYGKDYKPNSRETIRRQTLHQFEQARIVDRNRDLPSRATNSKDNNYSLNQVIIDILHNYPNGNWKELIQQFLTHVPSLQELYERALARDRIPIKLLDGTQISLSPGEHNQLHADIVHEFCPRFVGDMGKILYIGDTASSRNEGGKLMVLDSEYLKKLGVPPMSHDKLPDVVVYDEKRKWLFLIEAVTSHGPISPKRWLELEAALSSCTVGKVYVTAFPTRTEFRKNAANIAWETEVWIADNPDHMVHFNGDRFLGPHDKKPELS
Nature of the experiment: Restriction enzyme assay on pUC19. As for the experimental part: as §1

Experiment [4] addresses T2, Hind III (Haemophilus influenzae, UniProt P43870).
T2 construct: purchased New England BioLabs
Nature of the experiment: Restriction enzyme assay on pUC19. Here is the method:
as §1

Experiment [5] deals with T3, bacteriophage λ Integrase (Int) (Escherichia phage lambda, UniProt P03700). Nature of the experiment: Resolution of isolated excision Holliday junctions by Int, IHF and Xis. The settings on record: peptide 100 μM. Here is the method: (§2) FIG. 18 depicts effect of peptide WKHYNY on DNA cleavage. A. Time course of resolution of excision HJs. HJs were isolated, and Int, IHF, and Xis were added in the presence or absence of peptide 52 (100 μM) and stopped at various timepoints (1, 5, 15, 30, 60, and 90 min). Absence of peptide, closed circles; presence of peptide, open squares. B. The extent of strand cleavage of attL. An attL site containing a phosphorothiolate modification at the point of top strand cleavage (attLS) was incubated with Int, IHF, and Xis, in the presence of attR and in the presence or absence of peptide WKHYNY. Absence of peptide, open squares; presence of peptides, closed diamonds.
T3 sequence (P03700 whole entry): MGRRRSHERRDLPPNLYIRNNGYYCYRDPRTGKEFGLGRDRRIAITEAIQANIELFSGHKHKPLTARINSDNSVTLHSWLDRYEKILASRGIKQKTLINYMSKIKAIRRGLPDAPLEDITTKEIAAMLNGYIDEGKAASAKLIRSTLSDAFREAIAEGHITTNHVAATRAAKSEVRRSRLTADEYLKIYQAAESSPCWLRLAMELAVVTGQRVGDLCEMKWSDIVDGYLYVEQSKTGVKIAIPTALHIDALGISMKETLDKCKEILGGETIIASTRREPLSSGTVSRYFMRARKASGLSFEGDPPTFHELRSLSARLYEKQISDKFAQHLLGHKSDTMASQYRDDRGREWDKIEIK
T3 sequence (P0A6X7 whole entry partner): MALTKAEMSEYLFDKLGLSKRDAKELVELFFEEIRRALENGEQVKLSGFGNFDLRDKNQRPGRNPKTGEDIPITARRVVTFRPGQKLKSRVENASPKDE
T3 sequence (P0A6Y1 whole entry partner): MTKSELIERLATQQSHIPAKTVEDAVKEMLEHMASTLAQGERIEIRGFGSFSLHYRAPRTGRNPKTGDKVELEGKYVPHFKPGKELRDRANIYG
T3 sequence (P03699 whole entry partner): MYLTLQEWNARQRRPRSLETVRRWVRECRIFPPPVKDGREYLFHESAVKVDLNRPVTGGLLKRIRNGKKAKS
Holliday junctions can be resolved either in the “forward” direction to form recombinant products or in the “reverse” direction to re-form substrates. Synthetic HJs representing intermediates in the unidirectional reactions are preferentially resolved in the direction of products (Hsu and Landy, 1984; Franz and Landy, 1990, 1995). We wanted to determine whether HJs isolated in the presence of peptide behave similarly to the synthetic HJs. In addition, we wanted to analyze the processing of bent-L HJs. Recombination reactions were assembled in the presence of peptide WKHYNY, and protein-free HJs were isolated from SDS-containing gels, eluted, and precipitated. […]

Experiment [6] addresses T3, bacteriophage λ Integrase (Int). Nature of the experiment: Top strand cleavage of phosphorothiolate-modified attL (attLS). The settings on record: with Int, IHF, Xis and attR. As for the experimental part: as §2
In contrast, the peptide has little or no effect on the, rate of cleavage of the attL early intermediate under recombination conditions (FIG. 18B). We measured this by using attL substrates containing a bridging phosphorothiolate modification at the locus of top strand cleavage. This modification, developed by Burgin and Nash (1995), replaces a bridging oxygen atom in the DNA backbone with a sulfur atom. Upon cleavage, the covalent Int-DNA intermediate remains trapped because the sulfhydryl generated at the free 5′ end is a much poorer nucleophile of the phosphotyrosyl bond than the normal hydroxyl group (Burgin et al., 1995). […]

Where no end group is shown, it is not given here.

These results are taken from US20040002441A1, “Recombination modulators and methods for producing and using the same” (priority 2000, published 2004).

T2 sequence (P43870 whole entry): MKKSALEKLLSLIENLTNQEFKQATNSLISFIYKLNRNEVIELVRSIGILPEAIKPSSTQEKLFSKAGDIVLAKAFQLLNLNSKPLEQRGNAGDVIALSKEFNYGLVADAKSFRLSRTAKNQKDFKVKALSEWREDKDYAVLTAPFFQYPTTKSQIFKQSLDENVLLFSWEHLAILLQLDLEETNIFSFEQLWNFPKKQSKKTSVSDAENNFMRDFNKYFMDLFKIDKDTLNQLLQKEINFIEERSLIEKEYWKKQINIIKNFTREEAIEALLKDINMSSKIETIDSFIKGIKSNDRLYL

In general, IC50 refers to the concentration needed to halve the response being measured. The low end stands for higher potency, the high end for lower potency. As for KWWCRW-NH2 [Peptide 59, KWWCRW], the IC50 in experiment [1] was found to be 37 µM; in experiment [2] it was 37 µM; in experiment [3] it was 44 µM; in experiment [4], 48 µM.
For WKHYNY-NH2 [Peptide 52, WKHYNY], the “effect on rate of resolution of gel-isolated excision HJs” value in experiment [5] is reported as “slowed the rate of cleavage”. Besides, the “effect on first strand cleavage of attLS” value in experiment [6] is listed as “no influence on the kinetics or the amount of cleavage”.
